This is an account of results in patent US11045471B2, “Melanin production inhibitor, whitening agent, fibroblast activator, collagen and/or elastin production promotor and wrinkle ameliorant” (SHOWA DENKO K.K., priority 2016, dated 2021).

Converted amounts (≈) assume the structure as drawn. Some results are limits rather than exact numbers.

A word on the solubility (thermodynamic): it is the concentration in solution at equilibrium with solid. The term solubility denotes the dissolved amount per volume that the medium holds.

The test system of data set [1] is human three-dimensional skin equivalent. Put plainly: Cell survival rate in human three-dimensional skin equivalent (Cell Count Reagent SF). The data set is classed as cell-based. The note with it: for Cell Survival Rate (Relative Value): 15 days culture, control (PBS) = 1. The method, then: (§1) The effect of inhibiting melanin production in human three-dimensional skin was examined. Human three-dimensional skin equivalent manufactured by MatTek Corp. was purchased and pre-cultured for 1 hour with the dedicated culture medium, EPI-100LLMM, available from the same manufacturer.
(§2) Following pre-culturing, orotic acid-glutamic acid dissolved in phosphate-buffered saline (PBS) was added to the skin surface at a final concentration of 0.2% (w/v), 0.5% (w/v) or 1.0% (w/v), or orotic acid was added to the skin surface at a final concentration of 0.5% (w/v), followed by culturing for 15 days. The cell survival rates of the human three-dimensional skin equivalent following addition of orotic acid or orotic acid-glutamic acid were measured using the Cell Count Reagent SF manufactured by Nacalai-Tesque, Inc. After culturing, the skin was transferred to medium containing 1% Cell Count Reagent SF and after culturing for 3 hours, absorbance was measured at […]. Cell survival rates were calculated as the measured value based on a value of 1 for the control.

The test system is the same in data set [2]. Put plainly: Melanin production inhibition in human three-dimensional skin equivalent. Format: cell-based. The settings on record: for Melanin Production Rate (relative value): 15 days culture, per cell, control (PBS) = 1. Here is the method:
as §1, §2
After measuring cell survival rates in Experimental Example 2, the skin was thoroughly rinsed with PBS followed by sampling the skin and recovering in a 1.5 mL microtube. 150 μL of a dissolving solution containing sodium dodecyl sulfate (1% (w/v)), 0.05 mM ethylenediaminetetraacetate and 10 mM Tris-HCl (pH 6.8) were added thereto. After stirring, 3 μL of 5 mg/mL protease K were added followed by dissolving for 6 hours at 45° C., adding 25 μL of 500 mM […] and 5 μL of 30% aqueous hydrogen peroxide and further treating for 30 minutes at 80° C. After allowing the sample to cool to room temperature, 20 μL of a 2:1 solution of chloroform and methanol were added to the sample followed by centrifuging for 10 minutes at the highest rotating speed of the centrifuge. 80 μL aliquots of the sample supernatant were recovered onto microplates followed by measurement of absorbance at 405 nm. Melanin production rate was determined by calculating the extinction coefficient of each sample based on a value of 1 for the control and dividing that value by the cell survival rate determined in Example 2 to calculate the melanin production rate per cell.

Data set [3] deals with aged fibroblasts (NB1RGB cells). Nature of the data set: Collagen production in aged human fibroblasts (human collagen type I ELISA). Format: cell-based. The settings on record: 100 μM, 24 hours, culture supernatant; control = 1.00. The method, then:
Aged fibroblasts were prepared. Normal human fibroblasts in the form of NB1RGB cells (purchased from the Bioresource Center of Riken Japan) were cultured to confluence in a culture flask, and after culturing for 1 hour in Dulbecco's Modified Eagle Medium (DMEM) manufactured by Sigma Corp. containing 600 μM aqueous hydrogen peroxide and 10% (w/v) fetal calf serum, the cells were washed with PBS and cultured for 24 hours after changing the medium to DMEM containing 10% (w/v) fetal calf serum. This procedure was repeated three times to obtain aged fibroblasts.
The resulting aged fibroblasts were seeded into a plastic Petri dish at a seeding density of about 10,000 cells/cm^2 and then cultured for 24 hours in Dulbecco's Modified Eagle Medium (DMEM) manufactured by Sigma Corp. containing 10% (w/v) fetal calf serum. Subsequently, orotic acid or an orotic acid derivative dissolved in purified water (Table 4) was added to the medium at a final concentration of 100 μmol/L followed by additionally culturing for 24 hours. The medium to which orotic acid or orotic acid derivative had not been added was used as a control.
The culture supernatant was recovered after culturing and collagen production was measured using a human collagen type I ELISA kit manufactured by Acel, Inc. 50 μL of culture supernatant of each sample were added to a microplate treated with collagen antibody provided with the kit. After shake culturing for 1 hour at room temperature, the plate was washed three times with the washing solution provided with the kit. 50 μL of horseradish peroxidase-avidin reagent provided with the kit were added thereto followed by shake culturing for 1 hour at room temperature. After again washing three times with the washing solution, 50 μL of the coloring solution provided with the kit were added followed by allowing to stand undisturbed for 15 minutes at room temperature and adding 50 μL aliquots of reaction stopping solution thereto. After mixing by shaking for 1 minute, absorbance was measured at 450 nm.

Data set [4] concerns Normal human fibroblasts (NB1RGB cells). Nature of the data set: Elastin production in normal human fibroblasts (elastin assay kit). Format: cell-based. The note with it: 48 hours, control = 1.00. Here is the method:
Normal human fibroblasts in the form of NB1RGB cells (purchased from the Bioresource Center of Riken Japan) were seeded at a seeding density of about 10,000 cells/cm^2 and cultured for 24 hours in DMEM medium containing 10% (w/v) fetal calf serum. An orotic acid derivative according to the present invention dissolved in pure water to a final concentration of 0 μM (control), 0.1 μM, 1 μM, 10 μM or 100 μM or orotic acid dissolved in purified water to a final concentration of 100 μM was added to DMEM medium containing 10% (w/v) fetal calf serum followed by culturing for 48 hours. The cells were subsequently recovered, the elastin was extracted with an elastin assay kit manufactured by Biocolor Ltd., and absorbance of the extract was measured at a wavelength of 513 nm.

The conditions of data set [5]: cited from earlier work.
A short description of data set [6]: Effect of pH on water solubility (saturated concentration by HPLC).
Protocol: (§3) Subsequently, the pH of the remaining sample solution was adjusted using 1.0 N or 0.05 N aqueous sodium hydroxide solution, and in the case all of the sample had dissolved in the solution, sample was further added followed by stirring for 15 hours at room temperature (22° C.±2° C.) so that some of the sample was left undissolved and 1 mL of supernatant was similarly collected. Supernatant was repeatedly collected while adjusting the pH as necessary to obtain samples.
(§4) The resulting samples were filtered with a membrane filter having a pore size of 22 μm followed by subjecting the resulting filtrate to high-performance liquid chromatography (HPLC).
(§5) HPLC analyses were carried out using the LC Solution and PDA detector (CBM-20A) manufactured by Shimadzu Corp. and the Shodex RSpak DM-614 column at a column temperature of 40° C. and flow rate of 0.8 ml/min while using 0.02% H3PO4 for the mobile phase.
(§6) The concentration of each sample dissolved in solution was calculated from the area of the peak that coincided with each sample in the resulting analysis data.
Data set [7] in a line: physchem. The note with it: 22 °C, thermodynamic from solid.
Protocol: as §3, §4, §5, §6
The mark [8] stands for this setting: 22 °C, pH 2.3, water, thermodynamic from solid.
Setting [9] is: 22 °C, pH 4, aqueous buffer, thermodynamic from solid.

On to `O=C(O)c1cc(=O)[nH]c(=O)[nH]1` [Orotic acid, reference compound], for which, in data set [1] (0.5% (w/v) on skin surface), the “Cell Survival Rate (Relative Value)” value came to 1.1. In addition, the “Melanin Production Rate (relative value)” value in data set [2] (0.5% (w/v)) was 0.70. Also, the “Effect of inhibiting melanin production, statement in words” value in data set [2] (human three-dimensional skin equivalent) is reported as “superior effect of inhibiting melanin production”. Also, in data set [3], the “Collagen Production (relative value)” value came to 1.14. The “Elastin Production (relative value)” value in data set [4] (100 μM) stood at 1.12. For the same compound, the Solubility in alcohol entry in data set [5] (alcohol such as ethanol) was “practically insoluble”. Besides, the Solubility in water result in data set [5] (water) is “extremely insoluble”. Besides, the Saturated concentration in data set [6] (pH 2.3, room temperature (22° C.±2° C.)) is given as 0.08 % (w/v); in data set [6] (pH 4.6, room temperature (22° C.±2° C.)) it was 0.27 % (w/v); in data set [6] (pH 4.8, room temperature (22° C.±2° C.)), 0.26 % (w/v); in data set [6] (pH 5.8, room temperature (22° C.±2° C.)), 0.19 % (w/v); in data set [6] (pH 7.1, room temperature (22° C.±2° C.)) it was 0.16 % (w/v).

For the compound `O=C(O)C[C@H](NC(=O)c1cc(=O)[nH]c(=O)[nH]1)C(=O)O` [Orotic acid-Asp], the thermodynamic solubility at 15 h in data set [6] (setting [8]) amounted to 9.5 mg/mL (≈ 35 mM); in data set [6] (setting [9]), 98.2 mg/mL (≈ 362 mM). The solubility at 15 h in data set [6] (22 °C, pH 4.2, aqueous buffer, thermodynamic from solid) is over 111 mg/mL.

Consider `O=C(O)CC[C@H](NC(=O)c1cc(=O)[nH]c(=O)[nH]1)C(=O)O` [Orotic acid-Glu], for which the results for the “Cell Survival Rate (Relative Value)” value in data set [1] (0.2% (w/v) on skin surface), in data set [1] (0.5% (w/v) on skin surface) and in data set [1] (1% (w/v) on skin surface) were 1.4, 1.2 and 0.9, respectively. For the same compound, the “Cell survival rate, statement in words” value in data set [1] (at the test concentrations 0.2%, 0.5%, 1.0% (w/v)) is listed as “no decreases in cell survival rates observed”. The “Melanin Production Rate (relative value)” value in data set [2] (0.2% (w/v)) came out at 0.61; in data set [2] (0.5% (w/v)), 0.71; in data set [2] (1% (w/v)), 0.50. For the same compound, the “Collagen Production (relative value)” value in data set [3] came to 1.53. The “Elastin Production (relative value)” value in data set [4] (0.1 μM) was 1.20; in data set [4] (1 μM) it was 1.35; in data set [4] (10 μM), 1.24; in data set [4] (100 μM), 1.24. The solubility (thermodynamic) at 15 h in data set [6] (setting [8]) amounted to 13 mg/mL (≈ 45.6 mM); in data set [6] (22 °C, pH 5.2, aqueous buffer, thermodynamic from solid) it was 54.3 mg/mL (≈ 190 mM).

Consider `O=C(O)CNC(=O)c1cc(=O)[nH]c(=O)[nH]1` [Orotic acid-Gly], for which, in data set [3], the “Collagen Production (relative value)” value came to 1.23. Besides, the solubility (thermodynamic) at 15 h turned out to be 1.1 mg/mL (≈ 5.16 mM) in data set [6] (22 °C, pH 2.8, aqueous buffer, thermodynamic from solid); 3.2 mg/mL (≈ 15 mM) in data set [6] (22 °C, pH 3.6, aqueous buffer, thermodynamic from solid); 5.5 mg/mL (≈ 25.8 mM) in data set [6] (setting [9]); 16.6 mg/mL (≈ 77.9 mM) in data set [6] (22 °C, pH 4.5, aqueous buffer, thermodynamic from solid); 38.3 mg/mL (≈ 180 mM) in data set [6] (22 °C, pH 5.1, aqueous buffer, thermodynamic from solid); 66 mg/mL (≈ 310 mM) in data set [6] (22 °C, pH 6.1, aqueous buffer, thermodynamic from solid).

Regarding `O=C(N[C@@H](Cc1c[nH]cn1)C(=O)O)c1cc(=O)[nH]c(=O)[nH]1` [Orotic acid-His], the “Collagen Production (relative value)” value in data set [3] amounted to 1.23. The solubility (thermodynamic) at 15 h was found to be 2.2 mg/mL (≈ 7.5 mM) in data set [7] (pH 4.9, aqueous buffer) and 12.5 mg/mL (≈ 42.6 mM) in data set [7] (pH 7.2, aqueous buffer).
